Key:
PDK1 = PDK1 (Homo sapiens (Human), UniProt O15530); assay: PDK1 kinase assay (coupled PDK1/AKT/FAM-crosstide assay, IMAP fluorescence polarization); format: biochemical; conditions: inhibition of PDK1 in vitro
How it was run: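 GST-tagged human PDK1 (aa 51-359, 0.75 nM) from insect cells activated unphosphorylated GST-AKT2 (aa 140-467–PIFtide fusion, 10 nM), which phosphorylated 100 nM FAM-crosstide; 40 μM ATP, pH 7.2 Tris/MgCl2, 30 min at 25° C. IMAP fluorescence polarization read-out; ΔmP versus compound concentration fitted with a 4-parameter curve.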

[1] = system: phospho-akt (Thr308) in PC-3 cells; assay: Inhibition of phospho-akt (Thr308) in PC-3 cells, MSD phospho-akt 308 ELISA kit; format: cell-based; conditions: Homo sapiens; inhibition of P308 Akt in PC-3 cells using MSD, 2 hours, no serum; read-out: EC50
How it was run: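 Phospho-Akt (Thr308) levels were measured by MSD ELISA after PC-3 cells received compound for 2 hours in serum-free medium. Controls: DMSO (high), 5 μM wortmannin (low).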

PDK1, sequence (O15530 51-359): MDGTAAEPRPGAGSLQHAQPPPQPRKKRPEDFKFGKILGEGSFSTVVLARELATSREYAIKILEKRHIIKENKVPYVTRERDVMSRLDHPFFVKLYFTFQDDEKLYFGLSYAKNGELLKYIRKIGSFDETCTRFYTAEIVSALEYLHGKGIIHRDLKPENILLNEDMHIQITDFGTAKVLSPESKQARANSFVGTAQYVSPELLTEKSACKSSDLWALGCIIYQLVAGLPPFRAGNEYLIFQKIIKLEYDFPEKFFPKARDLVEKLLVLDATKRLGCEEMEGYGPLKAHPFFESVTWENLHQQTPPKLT

SMILES | IC50 (PDK1) [nM] | EC50 [1] [nM]
C[C@H](NC(=O)c1cccnc1NCc1ncc(-c2ccc3ncc4ncn(C)c4c3c2)s1)c1ccc(F)c(F)c1 [Example 385, N-[(S)-1-(3,4-Difluoro-phenyl)-ethyl]-2-{[5-(1-methyl-1H-imidazo[4,5-c]quinolin-8-yl)-thiazol-2-ylmethyl]-amino}-nicotinamide] | < 100 | < 1000
C[C@H](NC(=O)c1cccnc1NCc1ccc(-c2ccc3ncnc(NC4CC4)c3c2)s1)c1ccc(F)c(F)c1 [Example 386, 2-{[5-(4-Cyclopropylamino-quinazolin-6-yl)-thiophen-2-ylmethyl]-amino}-N-[(S)-1-(3,4-difluoro-phenyl)-ethyl]-nicotinamide] | < 100 | 1000 to 10000
C[C@H](NC(=O)c1cccnc1NCc1ccc(-c2ccc3ncnc(N4CCC4)c3c2)s1)c1ccc(F)c(F)c1 [Example 387, 2-{[5-(4-Azetidin-1-yl-quinazolin-6-yl)-thiophen-2-ylmethyl]-amino}-N-[(S)-1-(3,4-difluoro-phenyl)-ethyl]-nicotinamide] | < 100 | 1000 to 10000
C[C@H](NC(=O)c1cc(C#N)cnc1NCc1ccc(Oc2ccnc(N)c2)cc1)c1ccc(F)cc1 [Example 388] | > 5000 | > 10000
C[C@H](NC(=O)c1nc(C#N)cnc1NCc1ccc(-c2cnc3[nH]ncc3c2)cc1)c1ccc(F)cc1 [Example 389, 6-Cyano-3-[4-(1H-pyrazolo [3,4-b]pyridin-5-yl)-benzylamino]-pyrazine-2-carboxylic acid [(S)-1-(4-fluoro-phenyl)-ethyl]-amide] | < 100 | < 1000
C[C@H](NC(=O)c1nc(C#N)cnc1NCc1ccc(-c2cnc3[nH]ncc3c2)cc1)c1ccc(F)c(F)c1 [Example 390, 6-Cyano-3-[4-(1H-pyrazolo [3,4-b]pyridin-5-yl)-benzylamino]-pyrazine-2-carboxylic acid [(S)-1-(3,4-difluoro-phenyl)-ethyl]-amide] | < 100 | < 1000
C[C@H](NC(=O)c1nccnc1NCc1ccc(-c2cnc3[nH]ncc3c2)cc1)c1ccc(F)cc1 [Example 391, 3-[4-(1H-Pyrazolo[3,4-b]pyridin-5-yl)-benzylamino]-pyrazine-2-carboxylic acid [(S)-1-(4-fluoro-phenyl)-ethyl]-amide] | < 100 | 1000 to 10000
C[C@H](NC(=O)c1cccnc1NCc1ccc(-c2cnc3[nH]ncc3c2)cc1)c1ccc(F)cc1 [Example 392, N-[(S)-1-(4-Fluoro-phenyl)-ethyl]-2-[4-(1H-pyrazolo [3,4-b]pyridin-5-yl)-benzylamino]-nicotinamide] | < 100 | 1000 to 10000
O=C(NCc1ccc(F)cc1)c1cccnc1NCc1ccc(-c2cnc3[nH]ncc3c2)cc1 [Example 393, 2-(4-(1H-pyrazolo[3,4-b]pyridin-5-yl)benzylamino)-N-(4-fluorobenzyl) nicotinamide] | < 100 | 1000 to 10000
C[C@H](NC(=O)c1cc(C(F)(F)F)cnc1NCc1ccc(-c2cnc3[nH]ncc3c2)cc1)c1ccc(F)c(F)c1 [Example 394, N-[(S)-1-(3,4-Difluoro-phenyl)-ethyl]-2-[4-(1H-pyrazolo [3,4-b]pyridin-5-yl)-benzylamino]-5-trifluoromethyl-nicotinamide] | < 100 | < 1000
C[C@H](NC(=O)c1cc(C#N)cnc1NCc1ccc(-c2cnc3[nH]ncc3c2)cc1)c1ccc(F)c(F)c1 [Example 395, 5-Cyano-N-[(S)-1-(3,4-difluoro-phenyl)-ethyl]-2-[4-(1H-pyrazolo[3,4-b]pyridin-5-yl)-benzylamino]-nicotinamide] | < 100 | < 1000
N#Cc1cnc(NCc2ccc(-c3cnc4[nH]ncc4c3)cc2)c(C(=O)NCc2ccc(F)cc2)c1 [Example 397, 5-Cyano-N-(4-fluoro-benzyl)-2-[4-(1H-pyrazolo[3,4-b]pyridin-5-yl)-benzylamino]-nicotinamide] | < 100 | < 1000

— patent publication US10030016B2 (Sunesis Pharmaceuticals, Inc., priority 2009, dated 2018)
